Measurements taken from PMC8198750, “Synthesis of Novel Halogenated Heterocycles Based on o-Phenylenediamine and Their Interactions with the Catalytic Subunit of Protein Kinase CK2” (Molecules, 2021).

Columns and labels:
normal fibroblasts BJ = test: MTT cell viability assay, BJ; type: cell-based, human; conditions: Homo sapiens, Fibroblast; MTT, 72 h
Text: (§1) The following human cell lines were used in this study: (i) epidermoid carcinoma A-431 (ATCC® CRL-1555), (ii) colorectal carcinoma HCT116 (ATCC® CCL-247), (iii) colorectal carcinoma HCT116p53^−/−, and (iv) normal fibroblasts BJ (ATCC® CRL-2522). The HCT116p53^−/− cell line was a kind gift from professor Bert Vogelstein (John Hopkin’s University, Baltimore, MD, USA). The remaining cell lines were purchased from ATCC (Manassas, VA, USA) or Sigma Aldrich by Merck (Darmstadt, Germany).
(§2) Cells were cultured in Dulbecco’s modified Eagle’s or Roswell Park Memorial Institute (RPMI)-1640 medium supplemented with 10% or 15% fetal bovine serum (Gibco by Thermo Fisher Scientific, Waltham, MA, USA) under standard culture conditions (37 °C, 5% CO2) in a humidified incubator with atmospheric oxygen.
(§3) The viability of cells was assayed by measuring the conversion of MTT (3-(4,5-dimethylthiazol-2-yl)-2,5-diphenyltetrazolium bromide) to the formazan (the rate of this reaction is proportional to the number of surviving cells). Cells were seeded in a 96-well plate at a density of 1500–2500 cells per well, 24 h before treatment. Treatment with tested compounds and cisplatin (0.25–160 µM) was performed for 72 h. MTT stock solution (Sigma-Aldrich) was added at the final concentration 0.5 mg/mL. After 2 h of incubation at 37 °C, water-insoluble formazan was dissolved in a lysis buffer containing 20% SDS, 50% DMF, 2.5% hydrochloric acid, and 2.5% acetic acid. Optical densities were measured at 570 nm using a scanning multi-well spectrophotometer ([…] Detection Platform; Beckman Coulter, Brea, CA, USA).

hCK2α [1] = biological target: T1, hCK2α (Homo sapiens, UniProt P68400); test: nanoDSF thermal shift assay (low-volume differential scanning fluorimetry); type: binding; conditions: 10-fold excess of ligand (1:10 protein–ligand), 2.5 μM protein, relative to apo hCK2α, 2% DMSO, pH 8; read-out: ΔTm
T1 construct: made in house
T1 sequence (P68400 whole entry): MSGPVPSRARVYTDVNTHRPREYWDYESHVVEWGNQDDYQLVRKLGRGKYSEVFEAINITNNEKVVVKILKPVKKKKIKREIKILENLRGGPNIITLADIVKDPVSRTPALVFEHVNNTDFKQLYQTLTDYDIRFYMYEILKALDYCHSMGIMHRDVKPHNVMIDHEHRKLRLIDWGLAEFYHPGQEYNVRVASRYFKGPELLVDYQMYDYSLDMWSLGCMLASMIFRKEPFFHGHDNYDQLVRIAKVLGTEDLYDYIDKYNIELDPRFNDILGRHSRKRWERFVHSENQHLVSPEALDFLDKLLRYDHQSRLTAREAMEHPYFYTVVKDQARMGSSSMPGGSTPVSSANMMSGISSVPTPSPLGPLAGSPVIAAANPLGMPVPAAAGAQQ
Procedure: Binding affinities of the newly synthesized compounds towards hCK2α were assessed with the low-volume differential scanning fluorimetry (nanoDSF). The shift of the temperature of thermal denaturation in the presence of 10-fold excess of a particular ligand relative to the apo form of hCK2α (ΔTm) can be used as a semi-qualitative measure of the binding affinity or inhibitory activity.
hCK2α was expressed and purified according to the method described previously. Thermal stability of 1:10 protein–ligand complexes was monitored on Prometheus (Nanotemper Technologies, München, Germany) using PR-C002 Prometheus NT.48 Standard Capillaries using temperature ramp of 20 to 80 °C with 1 °C/min heating rate. Temperature-induced variation in ratio fluorescence intensity at 330 and 350 nm was globally analyzed using the procedure described before. All experiments were performed in 25 mM Tris–HCl (pH 8, 0.5 M NaCl) with 2% (v/v) DMSO. Protein was kept in constant 2.5 μM concentration.

[2] = tested on: A-431, HCT116, HCT116p53−/−, BJ; test: MTT cell viability, reference cell lines as a whole; type: cell-based; conditions: Homo sapiens; viability tests, cell line not specified
Text: as §1, §2
as §3, with “MTT stock solution (Sigma-Aldrich) was added at the final concentration 0.5 mg/mL. After 2 h of incubation at 37 °C, water-insoluble formazan was dissolved in a lysis buffer containing 20% SDS, 50% DMF, 2.5% hydrochloric acid, and 2.5% acetic acid.” left out

hCK2α [3] = biological target: T1, hCK2α; test: Inhibitory activity against human CK2α (ADP-Glo kinase assay); type: biochemical; conditions: inhibitor 1 nM–1 mM, triplicate
Procedure: The inhibitory effect of 8 selected compounds was monitored based on the luminescence measured with the SpectraMax iD3 Multi-Mode Microplate Reader (Molecular Devices, San Jose, CA, USA), using the previously described method with the aid of ADP-Glo kinase assay (Promega, Walldorf, Germany). Inhibitor concentration varied in the range of 1 nM–1 mM (see Supplementary Figure S38). Each experiment was repeated in triplicate and IC50 values were further estimated globally using the sigmoidal dose-response equation implemented in Origin 9.4 package (www.originlab.com, upgraded 20.07.27).

[4] = tested on: colorectal carcinoma HCT116p53−/−; test: MTT cell viability assay, HCT116p53−/−; type: cell-based; conditions: Homo sapiens, 72 h
Text: as §1, §2, §3

[5] = tested on: colorectal carcinoma HCT116; test: MTT cell viability assay, HCT116; type: cell-based; conditions: Homo sapiens, HCT-116, 72 h, read-out: IC50 HTC116
Text: as §1, §2, §3

[6] = tested on: epidermoid carcinoma A-431; test: MTT cell viability assay, A-431; type: cell-based; conditions: Homo sapiens, 72 h
Text: as §1, §2, §3

[7] = RP-HPLC chromatographic hydrophobicity index; type: physicochemical; conditions: C18, 2:1 methanol:20 mM aqueous ammonium formate pH 8; τ = (Tret − T0)/T0
Procedure: RP-HPLC method, a fast and efficient alternative for standard logD determination in octan-1-ol/water system, was used to assess the hydrophobicity of all synthesized compounds. This method has been successfully used in our laboratory for halogenated benzotriazole derivatives, including the evaluation of the effect of hydrophobicity on their binding to the catalytic subunit of protein kinase CK2 [24, 43].
Chromatographic hydrophobicity index (log(τ)) was determined with the reverse phase HPLC (RP-HPLC). Column: Nova-pak® C18 4 μm, 4.6 × 250 mm. Eluent: 2:1 methanol: 20 mM aqueous ammonium formate (pH = 8) (v/v). Flow: 0.7 mL/min. Detector wavelength: 280 nm. The individual retention times (Tret) were converted to a hydrophobicity scale according to the formula τ = (Tret − T0)/T0. where the retention time of unretained solvent (T0) was estimated to 300 s.

[8] = tested on: phytohemagglutinin-stimulated normal human lymphocytes; parameters: method as in PMID 12660022; conditions: cited from earlier work
[9] = tested on: PC-3 (prostate carcinoma); parameters: method as in PMID 12660022; conditions: cited from earlier work
MCF-7 (breast carcinoma) = tested on: MCF-7 (breast carcinoma); parameters: method as in PMID 12660022; conditions: cited from earlier work
CK2 = conditions: read-out: IC50 against CK2 / inhibitory activity; cited from earlier work

ΔTm at 25 µM (hCK2α [1])	IC50 (hCK2α [3])	IC50 [4]	IC50 [5]	IC50 [6]	log(τ) HPLC-derived hydrophobicity index [7]	Compound	IC50 (normal fibroblasts BJ)	IC50 [2]	IC80 [8]	IC80 [9]	IC80 (MCF-7 (breast carcinoma))	IC50 (CK2)
4.1 ± 0.1 °C	2 ± 1 µM	70 ± 10 µM	41 ± 4 µM	94 ± 14 µM	−0.117	Oc1nc2cc(I)c(I)cc2nc1O [Compound 7e]	128 ± 13 µM	~100 µM	–	–	–	–
2.4 ± 0.1 °C	15 ± 3 µM	12 ± 2 µM	10 ± 2 µM	13 ± 2 µM	0.310	FC(F)(F)c1nc2cc(Br)c(Br)cc2[nH]1 [Compound 3d, 5,6-dibromo-2-trifluoromethylo-1H-benzimidazole]	55 ± 6 µM	–	8.7 µM	< 3 µM	< 3 µM	28 µM
